Source: patent US11306063B2, “Heterocyclic naphthoquinones derivatives for use in the treatment of cancers including Cushing disease” (Commissariat a l'Energie Atomique et aux Energies …, priority 2016, dated 2022)

Tests used:
[1] = tested on: Gefitinib-resistant clone H1975; assay: Cell growth inhibition and cell death induction (Incucyte), H1975; type: cell-based, human; settings: 72 hours, FIG. 12A,B
Description: (§1) FIG. 12: The cell growth inhibition and cell death induction of non-small cell lung cancers (NSCLC), HCC827 cells and derivative Gefitinib-resistant clone H1975 (FIG. 12 A,B) and of PC-3 (FIG. 12 C,D) and LnCAP (FIG. 12 E,F) were monitored using Incucyte microscope. Histogram represent in A,C,E: the final cell area relative to the total well area in (%) and in B,D,F: the fluorescent area in μm2. Error bars indicate standard deviation between 6 technical replicates.
(§2) The cell growth inhibition and cell death induction of non-small cell lung cancers (NSCLC), HCC827 cells and derivative Gefitinib-resistant clone H1975 were monitored during a period of 72 hours using Incucyte microscope and dedicated programs allowing to monitor cell confluency (i.e.: cell surface area relative to total well surface) and cell death induction by adding Propidium Iodide (PI) at 1 μg/ml (Sigma Aldrich #P4864) in the culture medium.

[2] = tested on: LNCaP prostatic cancer cells; assay: Cell growth inhibition and cell death induction (Incucyte), LNCaP; type: cell-based, human; settings: 48 hours, FIG. 12E,F
Description: as §1, §2

LNCaP cells spheroids = assay: Cell death in 3D spheroids (PI/Hoechst, high content analysis); type: cell-based, human; settings: 1 to 3 days, increasing concentration, FIG. 2C
Method: Spheroids were then stained with Hoechst and Propidium Iodure (PI). The area of each staining was calculated via automated imaging. Histograms represent the medium value of the PI/Hoechst areas ratio calculated on 3 to 6 independent spheroids. Error bars indicate the standard deviation between technical replicates. One out of three experiments is presented.
For 3D cell culture (spheroids), the LNCaP-FGC (fast growing colony) cell line (ATCC #CRL1740) was used. This cell line derives from the LNCaP cell line (Human Prostatic Carcinoma) which shares all the main characteristics, including its androgen sensitivity, described for the parental line and HCT116 (ATCC #CCL 247) (Human Colorectal Carcinoma) cell lines. […]
An automated imaging protocol was designed to monitor the induction of cell death in the spheroids by high content analysis methods (HCA). 3 hours before reading, cells were labeled with vital Hoechst (400 ng/ml) (Thermo Fischer Scientific #33342) and Propidium Iodide (PI) at 1 μg/ml (Sigma Aldrich #P4864) as markers of cell nuclei and cell death respectively. Images of PI and Hoechst fluorescence were acquired using the automated microscope ArrayScan^VTI (ThermoScientific) and 5 times magnification. […]

PC-3 cells = assay: Cytotoxicity assay (PrestoBlue cell viability), PC-3; type: cell-based; settings: Homo sapiens, 48 hours treatment
Method: (§3) Messa, Messa DX5, HCT116, HEK-293, PC-3, LNCaP, HCC827 and H1975 cell lines are issued from the American Type Culture Collection (ATCC).
(§4) Messa, Messa DX5 and HCT116 were maintained in McCoy's supplemented with 10% fetal bovine serum, and 1% penicillin/streptomycin. PC-3, LNCaP cells were maintained in RPMI medium supplemented with 10% fetal bovine serum, and 1% penicilin/streptomycin and in the case of Messa DX5: 500 nM Doxorubicin was added to maintain selection pressure. HEK293 were maintained in DMEM medium supplemented with 10% fetal bovine serum, and 1% penicillin/streptomycin. Cells were maintained at 37° C. with 5% CO2, 95% air, and humid atmosphere. In the case of hormonal dependent LNCaP cells, 2 μM DiHydroTestosterone (DHT) was added or not—depending on the type of biological assay—for the same incubation period as compounds.
(§5) For cytotoxicity assays, cells were seeded in 96-well microplates 24 hours before the addition of increasing concentrations of each compound in the culture medium. Cell viability was analyzed 48 hours following addition of each compound through the monitoring of mitochondrial […] activity using PrestoBlue® Cell Viability Reagent (Invitrogen; #A-13261). Paclitaxel was used as a control which is cytotoxic on various cancerous cells although not on chemoresistant MESSA DX5 lineage.

[3] = tested on: all cancerous cells tested; assay: Cytotoxicity assay, summary over all cancerous cells tested; type: cell-based; settings: Homo sapiens; 48 h treatment; read-out: EC50 of cell death, range over all cancerous cells tested
Method: as §5

H1975 cells = assay: Cytotoxicity assay (PrestoBlue cell viability), H1975; type: cell-based, human
Method: as §3, §5

HCC827 cells = assay: Cell growth inhibition and cell death induction (Incucyte), HCC827; type: cell-based, human; settings: 72 hours, FIG. 12A,B
Description: as §1, §2

MESSA DX5 cells = assay: Cytotoxicity assay (PrestoBlue cell viability), MESSA DX5; type: cell-based, human; settings: for EC50: Homo sapiens, MES-SA/Dx5, 48 hours treatment, chemoresistant line
Method: as §3, §4, §5

MESSA cells = assay: Cytotoxicity assay (PrestoBlue cell viability), MESSA; type: cell-based; settings: Homo sapiens, MES-SA; 48 hours treatment; concentration inducing 50% cell mortality
Method: as §3, §4, §5

[4] = Metabolic stability on mouse liver microsomes; type: in vitro ADME; settings: 0.5 μM, up to 30 min; for cofactors (CYP)-mediated metabolism, mouse: with cofactors; for metabolism in the absence of cofactors, mouse: without cofactors
Method: (§6) Each compound was incubated either with cofactors (n=2) or without cofactors (n=1). Positive controls were: Diclofenac, Midazolam and Amitriptyline.

[5] = Metabolic stability on human liver microsomes; type: in vitro ADME; settings: 0.5 μM, up to 30 min; for cofactors (CYP)-mediated metabolism, human: with cofactors; for metabolism in the absence of cofactors, human: without cofactors
Method: as §6

HCT116 cells = assay: Cytotoxicity assay (PrestoBlue cell viability), HCT116; type: cell-based; settings: Homo sapiens, HCT-116; 48 hours treatment
Method: as §3, §4, §5

HEK293 cells = assay: Cytotoxicity assay (PrestoBlue cell viability), HEK293; type: cell-based; settings: Homo sapiens, 48 hours treatment
Method: as §3, §4, §5

LNCaP cells = assay: Cytotoxicity assay (PrestoBlue cell viability), LNCaP; type: cell-based; settings: Homo sapiens, 48 hours treatment
Method: as §3, §4, §5

Row | Structure (SMILES) | cell growth inhibition and cell death induction, H1975 [1] | cell growth inhibition and cell death induction, LNCaP [2] | cell death in spheroids (PI area over Hoechst area) (LNCaP cells spheroids) | EC50 (PC-3 cells) | EC50 [3] | EC50 (H1975 cells; 48 hours treatment, Gefitinib resistant cells) | EC50 (H1975 cells; Homo sapiens, NCI-H1975, 48 h, 48 hours treatment, Gefitinib resistant cells) | cell growth inhibition and cell death induction, HCC827 (HCC827 cells) | sensitivity of chemo-resistant MESSA-DX5 compared with nonresistant MESSA cell line (MESSA DX5 cells) | EC50 (MESSA DX5 cells) | EC50 (MESSA cells) | cofactors (CYP)-mediated metabolism, mouse [4] | metabolism in the absence of cofactors, mouse [4] | cofactors (CYP)-mediated metabolism, human [5] | metabolism in the absence of cofactors, human [5] | EC50 (HCT116 cells) | EC50 (HEK293 cells) | EC50 (LNCaP cells) | EC50 (H1975 cells; Homo sapiens, NCI-H1975, 48 h)
1 | CCCCS(=O)(=O)Cc1nc2c(nc1CS(=O)(=O)CCCC)C(=O)c1ccccc1C2=O [PCR6236] | inhibit cell growth and induce cell death in a dose dependent manner | inhibit cell growth and induce cell death in a dose dependent manner | significant induction of a tumorous cells death | 0.8 µM | 1 to 3.5 µM | 3 µM | ≤ 3 µM | inhibit cell growth and induce cell death in a dose dependent manner | equally sensitive | 3.5 µM | 2 µM | high | No metabolism was observed | low | No metabolism was observed | 1.3 µM | 1.4 µM | 2 µM | 
2 | O=C1c2ccccc2C(=O)c2nc(CS(=O)(=O)c3ccccc3F)c(CS(=O)(=O)c3ccccc3F)nc21 [OVM24] |  | inhibit cell growth and induce cell death in a dose dependent manner |  | 2.5 µM |  |  |  |  |  | 0.8 µM | 0.7 µM |  |  |  |  |  | 2.5 µM | 1.3 µM | 2 µM
3 | CCCCS(=O)(=O)Cc1nc2c(o1)C(=O)c1ccccc1C2=O [PCR9301] | inhibit cell growth and induce cell death in a dose dependent manner |  | to an ever higher extend | 1 µM | 1 to 3.5 µM |  |  | inhibit cell growth and induce cell death in a dose dependent manner | equally sensitive | 1.8 µM | 1.3 µM | not or poorly metabolized | No metabolism was observed | not or poorly metabolized | No metabolism was observed | 1.7 µM |  | 1.3 µM | 
4 | CCCS(=O)(=O)Cc1nc2c(nc1CS(=O)(=O)CCC)C(=O)c1ccccc1C2=O [VIN6074] |  | inhibit cell growth and induce cell death in a dose dependent manner |  | 2.3 µM |  |  |  |  |  | 3.5 µM | 2.7 µM |  |  |  |  |  | 1.5 µM | 1.9 µM | 2 µM
